# Results from US11053204B2, “Pyrimidinyloxy benzene derivatives as herbicides” (FMC Corporation, priority 2015, dated 2021).
# How the values were obtained:
# Type in all cases: in vivo
# [1] = tested on: oilseed rape (Brassica napus); assay: Test C preemergence, plant response rating; conditions: Brassica napus, pre-emergence, Preemergence
# Outline: (§1)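 Visual injury score, 0 = no effect, 100 = complete control, assigned against untreated controls after 13 to 15 d in the greenhouse. Compounds were applied in a surfactant-containing non-phytotoxic solvent mix, preemergence to seeded loam/sand or silt loam soil, or postemergence to 1- to 4-leaf plants (2 to 18 cm).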
# [2] = tested on: waterhemp (common waterhemp, Amaranthus rudis); assay: Test C preemergence, plant response rating; conditions: Amaranthus tuberculatus, pre-emergence, Preemergence
# Outline: as §1
# [3] = tested on: nutsedge, yellow (yellow nutsedge, Cyperus esculentus); assay: Test C preemergence, plant response rating; conditions: Cyperus, pre-emergence, Preemergence
# Outline: as §1
# [4] = tested on: soybean (Glycine max); assay: Test C preemergence, plant response rating; conditions: Glycine max, pre-emergence, Preemergence
# Outline: as §1
# [5] = tested on: morningglory (Ipomoea coccinea); assay: Test C preemergence, plant response rating; conditions: Ipomoea, pre-emergence, Preemergence
# Outline: as §1
# [6] = tested on: ryegrass, Italian (Italian ryegrass, Lolium multiflorum); assay: Test C preemergence, plant response rating; conditions: Lolium multiflorum, pre-emergence, Preemergence
# Outline: as §1
# [7] = tested on: velvetleaf (Abutilon theophrasti); assay: Test C preemergence, plant response rating; conditions: Abutilon theophrasti, pre-emergence, Preemergence
# Outline: as §1
# [8] = tested on: corn (Zea mays); assay: Test C preemergence, plant response rating; conditions: Zea mays, pre-emergence, Preemergence
# Outline: as §1
# [9] = tested on: foxtail, giant (giant foxtail, Setaria faberii); assay: Test C preemergence, plant response rating; conditions: Setaria faberi, pre-emergence, Preemergence
# Outline: as §1
# [10] = tested on: blackgrass (Alopecurus myosuroides); assay: Test C preemergence, plant response rating; conditions: Alopecurus myosuroides, pre-emergence, Preemergence
# Outline: as §1
# [11] = tested on: ragweed (common ragweed, Ambrosia elatior); assay: Test C preemergence, plant response rating; conditions: Ambrosia artemisiifolia, pre-emergence, Preemergence
# Outline: as §1
# [12] = tested on: wheat (winter wheat, Triticum aestivum); assay: Test C preemergence, plant response rating; conditions: Triticum aestivum, pre-emergence, Preemergence
# Outline: as §1
# [13] = tested on: lambsquarters (Chenopodium album); assay: Test C preemergence, plant response rating; conditions: Chenopodium album, pre-emergence, Preemergence
# Outline: as §1
# [14] = tested on: crabgrass, large (large crabgrass, Digitaria sanguinalis); assay: Test C preemergence, plant response rating; conditions: Digitaria sanguinalis, pre-emergence, Preemergence
# Outline: as §1
# [15] = tested on: oilseed rape (Brassica napus); assay: Test C postemergence, plant response rating; conditions: Brassica napus, post-emergence
# Outline: as §1
# [16] = tested on: morningglory (Ipomoea coccinea); assay: Test C postemergence, plant response rating; conditions: Ipomoea, post-emergence
# Outline: as §1
# [17] = tested on: barnyardgrass (Echinochloa crus-galli); assay: Test C postemergence, plant response rating; conditions: Echinochloa crus-galli, post-emergence
# Outline: as §1
# [18] = tested on: velvetleaf (Abutilon theophrasti); assay: Test C postemergence, plant response rating; conditions: Abutilon theophrasti, post-emergence
# Outline: as §1
# [19] = tested on: foxtail, giant (giant foxtail, Setaria faberii); assay: Test C postemergence, plant response rating; conditions: Setaria faberi, post-emergence
# Outline: as §1
# [20] = tested on: blackgrass (Alopecurus myosuroides); assay: Test C postemergence, plant response rating; conditions: Alopecurus myosuroides, post-emergence
# Outline: as §1
# [21] = tested on: wheat (winter wheat, Triticum aestivum); assay: Test C postemergence, plant response rating; conditions: Triticum aestivum, post-emergence
# Outline: as §1
# [22] = 62 g ai/ha, scale 0 to 100 (0 no effect, 100 complete control)
# [23] = 125 g ai/ha, scale 0 to 100 (0 no effect, 100 complete control)
smiles,measurement,setting,value
"N#Cc1cccc(Oc2ncc(Cl)cn2)c1CCCCC(F)(F)F [Compound 73, 3-[(5-chloro-2-pyrimidinyl)oxy]-2-(5,5,5-trifluoropentyl)benzonitrile]",plant injury at 125 g/ha,"[1]; 125 g ai/ha, scale of 0 to 100",65%
same,plant injury at 16 g/ha,"[1]; 16 g ai/ha, scale 0 to 100",0%
same,plant injury at 31 g/ha,"[1]; 31 g ai/ha, scale 0 to 100",20%
same,plant injury at 62 g/ha,"[1]; 62 g ai/ha, scale 0 to 100",50%
same,pest or weed control at 125 g/ha,"[2]; 125 g ai/ha, scale of 0 to 100",100%
same,pest or weed control at 16 g/ha,"[2]; 16 g ai/ha, scale 0 to 100",65%
same,pest or weed control at 31 g/ha,"[2]; 31 g ai/ha, scale 0 to 100",100%
same,pest or weed control at 62 g/ha,"[2]; 62 g ai/ha, scale 0 to 100",100%
same,pest or weed control at 125 g/ha,"[3]; 125 g ai/ha, scale of 0 to 100",10%
same,pest or weed control at 16 g/ha,"[3]; 16 g ai/ha, scale 0 to 100",0%
same,pest or weed control at 31 g/ha,"[3]; 31 g ai/ha, scale 0 to 100",0%
same,pest or weed control at 62 g/ha,"[3]; 62 g ai/ha, scale 0 to 100",0%
same,plant injury at 125 g/ha,"[4]; 125 g ai/ha, scale of 0 to 100",40%
same,plant injury at 16 g/ha,"[4]; 16 g ai/ha, scale 0 to 100",0%
same,plant injury at 31 g/ha,"[4]; 31 g ai/ha, scale 0 to 100",0%
same,plant injury at 62 g/ha,"[4]; 62 g ai/ha, scale 0 to 100",25%
same,pest or weed control at 125 g/ha,"[5]; 125 g ai/ha, scale of 0 to 100",75%
same,pest or weed control at 16 g/ha,"[5]; 16 g ai/ha, scale 0 to 100",0%
same,pest or weed control at 31 g/ha,"[5]; 31 g ai/ha, scale 0 to 100",10%
same,pest or weed control at 62 g/ha,"[5]; 62 g ai/ha, scale 0 to 100",60%
same,pest or weed control at 125 g/ha,"[6]; 125 g ai/ha, scale of 0 to 100",100%
same,pest or weed control at 16 g/ha,"[6]; 16 g ai/ha, scale 0 to 100",30%
same,pest or weed control at 31 g/ha,"[6]; 31 g ai/ha, scale 0 to 100",35%
same,pest or weed control at 62 g/ha,"[6]; 62 g ai/ha, scale 0 to 100",85%
same,pest or weed control at 125 g/ha,"[7]; 125 g ai/ha, scale of 0 to 100",95%
same,pest or weed control at 16 g/ha,"[7]; 16 g ai/ha, scale 0 to 100",0%
same,pest or weed control at 31 g/ha,"[7]; 31 g ai/ha, scale 0 to 100",30%
same,pest or weed control at 62 g/ha,"[7]; 62 g ai/ha, scale 0 to 100",75%
same,"Corn plant response rating (crop injury, 0 = no effect, 100 = complete kill) at 62 g/ha","[8]; 62 g ai/ha, scale of 0 to 100",40%
same,"Corn plant response rating (crop injury, 0 = no effect, 100 = complete kill) at 125 g/ha","[8]; 125 g ai/ha, scale of 0 to 100",50%
same,"Corn plant response rating (crop injury, 0 = no effect, 100 = complete kill) at 16 g/ha","[8]; 16 g ai/ha, scale 0 to 100",0%
same,"Corn plant response rating (crop injury, 0 = no effect, 100 = complete kill) at 31 g/ha","[8]; 31 g ai/ha, scale 0 to 100",20%
same,pest or weed control at 62 g/ha,"[9]; 62 g ai/ha, scale of 0 to 100",100%
same,pest or weed control at 125 g/ha,"[9]; 125 g ai/ha, scale of 0 to 100",100%
same,pest or weed control at 16 g/ha,"[9]; 16 g ai/ha, scale 0 to 100",98%
same,pest or weed control at 31 g/ha,"[9]; 31 g ai/ha, scale 0 to 100",100%
same,pest or weed control at 62 g/ha,"[10]; 62 g ai/ha, scale of 0 to 100",100%
same,pest or weed control at 125 g/ha,"[10]; 125 g ai/ha, scale of 0 to 100",100%
same,pest or weed control at 16 g/ha,"[10]; 16 g ai/ha, scale 0 to 100",5%
same,pest or weed control at 31 g/ha,"[10]; 31 g ai/ha, scale 0 to 100",98%
same,pest or weed control at 125 g/ha,"[11]; 125 g ai/ha, scale of 0 to 100",25%
same,pest or weed control at 16 g/ha,"[11]; 16 g ai/ha, scale 0 to 100",0%
same,pest or weed control at 31 g/ha,"[11]; 31 g ai/ha, scale 0 to 100",0%
same,pest or weed control at 62 g/ha,"[11]; 62 g ai/ha, scale 0 to 100",10%
same,plant injury at 125 g/ha,"[12]; 125 g ai/ha, scale of 0 to 100",70%
same,plant injury at 16 g/ha,"[12]; 16 g ai/ha, scale 0 to 100",0%
same,plant injury at 31 g/ha,"[12]; 31 g ai/ha, scale 0 to 100",0%
same,plant injury at 62 g/ha,"[12]; 62 g ai/ha, scale 0 to 100",30%
same,pest or weed control at 125 g/ha,"[13]; 125 g ai/ha, scale of 0 to 100",100%
same,pest or weed control at 16 g/ha,"[13]; 16 g ai/ha, scale 0 to 100",85%
same,pest or weed control at 31 g/ha,"[13]; 31 g ai/ha, scale 0 to 100",90%
same,pest or weed control at 62 g/ha,"[13]; 62 g ai/ha, scale 0 to 100",90%
same,pest or weed control at 62 g/ha,"[14]; 62 g ai/ha, scale of 0 to 100",100%
same,pest or weed control at 125 g/ha,"[14]; 125 g ai/ha, scale of 0 to 100",100%
same,pest or weed control at 16 g/ha,"[14]; 16 g ai/ha, scale 0 to 100",98%
same,pest or weed control at 31 g/ha,"[14]; 31 g ai/ha, scale 0 to 100",100%
same,plant injury at 16 g/ha,"[15]; 16 g ai/ha, scale 0 to 100",5%
same,plant injury at 31 g/ha,"[15]; 31 g ai/ha, scale 0 to 100",80%
same,plant injury at 62 g/ha,[15]; [22],98%
same,plant injury at 125 g/ha,[15]; [23],50%
same,pest or weed control at 16 g/ha,"[16]; 16 g ai/ha, scale 0 to 100",70%
same,pest or weed control at 31 g/ha,"[16]; 31 g ai/ha, scale 0 to 100",75%
same,pest or weed control at 62 g/ha,[16]; [22],85%
same,pest or weed control at 125 g/ha,[16]; [23],75%
same,pest or weed control at 16 g/ha,"[17]; 16 g ai/ha, scale 0 to 100",10%
same,pest or weed control at 31 g/ha,"[17]; 31 g ai/ha, scale 0 to 100",15%
same,pest or weed control at 62 g/ha,[17]; [22],20%
same,pest or weed control at 125 g/ha,[17]; [23],30%
same,pest or weed control at 16 g/ha,"[18]; 16 g ai/ha, scale 0 to 100",40%
same,pest or weed control at 31 g/ha,"[18]; 31 g ai/ha, scale 0 to 100",60%
same,pest or weed control at 62 g/ha,"[18]; 62 g ai/ha, scale 0 to 100 (0 no effect, 100 complete control), read-out: Velvetleaf plant response rating",70%
same,pest or weed control at 125 g/ha,[18]; [23],75%
same,pest or weed control at 16 g/ha,"[19]; 16 g ai/ha, scale 0 to 100",15%
same,pest or weed control at 31 g/ha,"[19]; 31 g ai/ha, scale 0 to 100",25%
same,pest or weed control at 62 g/ha,[19]; [22],20%
same,pest or weed control at 125 g/ha,[19]; [23],25%
same,pest or weed control at 16 g/ha,"[20]; 16 g ai/ha, scale 0 to 100",10%
same,pest or weed control at 31 g/ha,"[20]; 31 g ai/ha, scale 0 to 100",5%
same,pest or weed control at 62 g/ha,[20]; [22],40%
same,pest or weed control at 125 g/ha,[20]; [23],35%
same,plant injury at 16 g/ha,"[21]; 16 g ai/ha, scale 0 to 100",0%
same,plant injury at 31 g/ha,"[21]; 31 g ai/ha, scale 0 to 100",5%
same,plant injury at 62 g/ha,"[21]; 62 g ai/ha, scale 0 to 100 (0 no effect, 100 complete control), read-out: Wheat plant response rating",5%
same,plant injury at 125 g/ha,[21]; [23],5%
